The text below walks through data of paper PMC5218480 (PLoS ONE, 2017).

The subject of this experiment is MV-4-11 cells. Put plainly: Gene expression microarray analysis (Affymetrix PrimeView) and GSEA. Format: cell-based, human. Details: RFU PODN (11730768_x_at) / Fold change /veh PODN (11730768_x_at) / RFU LINC00158 (11744669_a_at) / Fold change /veh LINC00158 (11744669_a_at) / RFU DUSP10 (11751237_a_at) / Fold change /veh DUSP10 (11751237_a_at) / RFU ID3 (11757404_x_at) / Fold change /veh ID3 (11757404_x_at) / RFU PLEKHG5 (11737974_s_at) / Fold change /veh PLEKHG5 (11737974_s_at) / RFU LRRC4B (11730491_at) / Fold change /veh LRRC4B (11730491_at) / RFU GIMAP4 (11747438_a_at) / Fold change /veh GIMAP4 (11747438_a_at) / RFU KRT8 (11758183_x_at) / Fold change /veh KRT8 (11758183_x_at) / RFU CNN1 (11734310_a_at) / Fold change /veh CNN1 (11734310_a_at) / RFU VPS37D (11726825_at) / Fold change /veh VPS37D (11726825_at) / RFU C10orf10 (11716522_x_at) / Fold change /veh C10orf10 (11716522_x_at) / RFU KIR2DL2 /// KIR2DL4 /// KIR2DL5A /// KIR2DL5B /// KIR2DS1 /// KIR2DS2 /// KIR2DS3 /// KIR2DS4 /// KIR3DL3 /// KIR3DL3 /// KIR3DS1 (11738374_at) / Fold change /veh KIR2DL2 /// KIR2DL4 /// KIR2DL5A /// KIR2DL5B /// KIR2DS1 /// KIR2DS2 /// KIR2DS3 /// KIR2DS4 /// KIR3DL3 /// KIR3DL3 /// KIR3DS1 (11738374_at) / RFU C1QL1 (11718748_at) / Fold change /veh C1QL1 (11718748_at) / RFU TMPRSS4 (11747572_a_at) / Fold change /veh TMPRSS4 (11747572_a_at) / RFU HAMP (11756126_x_at) / Fold change /veh HAMP (11756126_x_at) / RFU RNFT2 (11725882_a_at) / Fold change /veh RNFT2 (11725882_a_at) / RFU NR4A2 (11747474_a_at) / Fold change /veh NR4A2 (11747474_a_at) / RFU ABCC12 (11746883_a_at) / Fold change /veh ABCC12 (11746883_a_at) / RFU TMEM136 (11760407_x_at) / Fold change /veh TMEM136 (11760407_x_at) / RFU CLDN22 /// WWC2 (11732394_at) / Fold change /veh CLDN22 /// WWC2 (11732394_at) / RFU HLA-DPB1 (11760878_x_at) / Fold change /veh HLA-DPB1 (11760878_x_at) / RFU SPINT1 (11716480_a_at) / Fold change /veh SPINT1 (11716480_a_at) / RFU GAP43 (11754022_s_at) / Fold change /veh GAP43 (11754022_s_at) / RFU A4GNT (11735810_at) / Fold change /veh A4GNT (11735810_at) / RFU PRB3 (11715151_x_at) / Fold change /veh PRB3 (11715151_x_at) / RFU TUBB4B (11761932_at) / Fold change /veh TUBB4B (11761932_at) / RFU CAPN14 (11732068_a_at) / Fold change /veh CAPN14 (11732068_a_at) / RFU TMCC2 (11721928_a_at) / Fold change /veh TMCC2 (11721928_a_at) / RFU IRGQ (11745062_a_at) / Fold change /veh IRGQ (11745062_a_at) / RFU FAM174B (11720279_a_at) / Fold change /veh FAM174B (11720279_a_at) / RFU TMPRSS4 (11748680_a_at) / Fold change /veh TMPRSS4 (11748680_a_at) / RFU FAM212B (11763350_a_at) / Fold change /veh FAM212B (11763350_a_at) / RFU PLEKHG5 (11743358_a_at) / Fold change /veh PLEKHG5 (11743358_a_at) / RFU ZSCAN30 (11745921_a_at) / Fold change /veh ZSCAN30 (11745921_a_at) / RFU CMKLR1 (11741424_a_at) / Fold change /veh CMKLR1 (11741424_a_at) / RFU LOC101060620 /// MAPK8IP1 (11723275_at) / Fold change /veh LOC101060620 /// MAPK8IP1 (11723275_at) / RFU SPTSSB (11747773_x_at) / Fold change /veh SPTSSB (11747773_x_at) / RFU PRSS12 (11739890_at) / Fold change /veh PRSS12 (11739890_at) / RFU BIN1 (11741810_x_at) / Fold change /veh BIN1 (11741810_x_at) / RFU WNT11 (11732464_a_at) / Fold change /veh WNT11 (11732464_a_at) / RFU C10orf10 (11716521_a_at) / Fold change /veh C10orf10 (11716521_a_at) / RFU C5orf56 (11738089_at) / Fold change /veh C5orf56 (11738089_at) / RFU CYB561 (11721691_x_at) / Fold change /veh CYB561 (11721691_x_at) / RFU ANKRD19P (11752326_a_at) / Fold change /veh ANKRD19P (11752326_a_at) / RFU OR2T12 /// OR2T33 /// OR2T8 (11738714_s_at) / Fold change /veh OR2T12 /// OR2T33 /// OR2T8 (11738714_s_at) / RFU VCAN (11748164_a_at) / Fold change /veh VCAN (11748164_a_at) / RFU JSRP1 (11732532_at) / Fold change /veh JSRP1 (11732532_at) / RFU KRTAP10-11 (11738290_x_at) / Fold change /veh KRTAP10-11 (11738290_x_at) / RFU MYO3A (11730013_a_at) / Fold change /veh MYO3A (11730013_a_at) / RFU EBF3 (11725865_a_at) / Fold change /veh EBF3 (11725865_a_at) / RFU CAMK2N1 (11719241_x_at) / Fold change /veh CAMK2N1 (11719241_x_at) / RFU C5orf56 (11738088_a_at) / Fold change /veh C5orf56 (11738088_a_at) / RFU OLFML3 (11715873_a_at) / Fold change /veh OLFML3 (11715873_a_at) / RFU LOC100653217 /// NTM (11731650_a_at) / Fold change /veh LOC100653217 /// NTM (11731650_a_at) / RFU MAPK11 (11762145_a_at) / Fold change /veh MAPK11 (11762145_a_at) / RFU FIZ1 (11724087_x_at) / Fold change /veh FIZ1 (11724087_x_at) / RFU OASL (11726364_x_at) / Fold change /veh OASL (11726364_x_at) / RFU SOX15 (11748057_x_at) / Fold change /veh SOX15 (11748057_x_at) / RFU CD79A (11719716_a_at) / Fold change /veh CD79A (11719716_a_at) / RFU HIST1H1D (11736915_at) / Fold change /veh HIST1H1D (11736915_at) / RFU CASKIN2 (11723855_a_at) / Fold change /veh CASKIN2 (11723855_a_at) / RFU LOC730098 (11760151_x_at) / Fold change /veh LOC730098 (11760151_x_at) / RFU OR4N2 (11742367_at) / Fold change /veh OR4N2 (11742367_at) / RFU PRRT2 (11749266_a_at) / Fold change /veh PRRT2 (11749266_a_at) / RFU SNX32 (11753110_a_at) / Fold change /veh SNX32 (11753110_a_at) / RFU CDHR5 (11726645_a_at) / Fold change /veh CDHR5 (11726645_a_at) / RFU RCAN1 (11760418_a_at) / Fold change /veh RCAN1 (11760418_a_at) / RFU FAM167A (11723789_a_at) / Fold change /veh FAM167A (11723789_a_at) / RFU FAM26E (11764081_at) / Fold change /veh FAM26E (11764081_at) / RFU ISYNA1 (11749810_s_at) / Fold change /veh ISYNA1 (11749810_s_at) / RFU ACY1 (11761880_at) / Fold change /veh ACY1 (11761880_at) / RFU 11764098_at / Fold change /veh 11764098_at / RFU SAMD14 (11745864_x_at) / Fold change /veh SAMD14 (11745864_x_at) / RFU NPB (11741838_a_at) / Fold change /veh NPB (11741838_a_at) / RFU TMPRSS6 (11731388_a_at) / Fold change /veh TMPRSS6 (11731388_a_at) / RFU KRTAP10-2 (11738614_at) / Fold change /veh KRTAP10-2 (11738614_at) / RFU ARHGAP8 /// PRR5-ARHGAP8 (11727945_x_at) / Fold change /veh ARHGAP8 /// PRR5-ARHGAP8 (11727945_x_at) / RFU KRTAP5-7 /// NADSYN1 (11734609_at) / Fold change /veh KRTAP5-7 /// NADSYN1 (11734609_at) / RFU RASL12 (11751679_a_at) / Fold change /veh RASL12 (11751679_a_at) / RFU CDKN2B (11736163_a_at) / Fold change /veh CDKN2B (11736163_a_at) / RFU PRF1 (11729649_at) / Fold change /veh PRF1 (11729649_at) / RFU, ZNF638 /// ZNF638-IT1 / Fold change vs veh, ZNF638 /// ZNF638-IT1 / RFU, PANK3 / Fold change vs veh, PANK3 / RFU, SH3YL1 / Fold change vs veh, SH3YL1 / RFU, ZEB2 / Fold change vs veh, ZEB2 / RFU, NRIP1 / Fold change vs veh, NRIP1 / RFU, PTTG1IP / Fold change vs veh, PTTG1IP / RFU, CAPN2 / Fold change vs veh, CAPN2 / RFU, MED14 / Fold change vs veh, MED14 / RFU, SNORA58 / Fold change vs veh, SNORA58 / RFU, C1orf63 / Fold change vs veh, C1orf63 / RFU, LRRFIP1 / Fold change vs veh, LRRFIP1 / RFU, NDUFAF7 / Fold change vs veh, NDUFAF7 / RFU, SLC12A2 / Fold change vs veh, SLC12A2 / RFU, IBTK / Fold change vs veh, IBTK / RFU, ESF1 / Fold change vs veh, ESF1 / Fold change vs veh, TMEM50B / RFU, TAOK1 / Fold change vs veh, TAOK1 / RFU, ACBD3 / Fold change vs veh, ACBD3 / RFU, TMA16 / Fold change vs veh, TMA16 / RFU, RWDD3 / Fold change vs veh, RWDD3 / RFU, BCAT1 / Fold change vs veh, BCAT1 / RFU, EDEM3 / Fold change vs veh, EDEM3 / RFU, TMEM33 / Fold change vs veh, TMEM33 / RFU, WDR75 / Fold change vs veh, WDR75 / RFU, AHCTF1 / Fold change vs veh, AHCTF1 / RFU, TFRC / Fold change vs veh, TFRC / RFU, ZDHHC17 / Fold change vs veh, ZDHHC17 / RFU, NOM1 / Fold change vs veh, NOM1 / RFU, ARL8B / Fold change vs veh, ARL8B / RFU, ZBTB11 / Fold change vs veh, ZBTB11 / RFU, TAMM41 / Fold change vs veh, TAMM41 / RFU, KIAA1704 /// LOC100996395 / Fold change vs veh, KIAA1704 /// LOC100996395 / RFU, ING1 / Fold change vs veh, ING1 / RFU, TRMT61B / Fold change vs veh, TRMT61B / RFU, FUBP3 / Fold change vs veh, FUBP3 / RFU, TP53 / Fold change vs veh, TP53 / RFU, TNKS2 / Fold change vs veh, TNKS2 / RFU, ZFP14 / Fold change vs veh, ZFP14 / RFU, ACTR2 / Fold change vs veh, ACTR2 / RFU, PPP3R1 / Fold change vs veh, PPP3R1 / RFU, PIK3R1 / Fold change vs veh, PIK3R1 / RFU, HNRNPA1 / Fold change vs veh, HNRNPA1 / RFU, RNF170 / Fold change vs veh, RNF170 / RFU, ZNF28 / Fold change vs veh, ZNF28 / RFU, RNGTT / Fold change vs veh, RNGTT / RFU, OGT / Fold change vs veh, OGT / RFU, BRD1 / Fold change vs veh, BRD1 / RFU, MARS / Fold change vs veh, MARS / RFU, ZNF655 / Fold change vs veh, ZNF655 / RFU, FAHD1 / Fold change vs veh, FAHD1 / RFU, BDP1 / Fold change vs veh, BDP1 / RFU, LRRCC1 / Fold change vs veh, LRRCC1 / RFU, ARID1A / Fold change vs veh, ARID1A / RFU, ZNF146 / Fold change vs veh, ZNF146 / RFU, ZNF330 / Fold change vs veh, ZNF330 / RFU, GPN3 / Fold change vs veh, GPN3 / RFU, C9orf123 / Fold change vs veh, C9orf123 / RFU, N4BP2L2 / Fold change vs veh, N4BP2L2 / RFU, ARFIP1 / Fold change vs veh, ARFIP1 / RFU, FAM179B / Fold change vs veh, FAM179B / RFU, BCL10 / Fold change vs veh, BCL10 / RFU, UHRF1BP1L / Fold change vs veh, UHRF1BP1L / RFU, BET1 / Fold change vs veh, BET1 / RFU, CNOT2 / Fold change vs veh, CNOT2 / RFU, ZNF268 / Fold change vs veh, ZNF268 / Fold change vs veh, ZNF507 / RFU, DGCR2 / Fold change vs veh, DGCR2 / RFU, WDSUB1 / Fold change vs veh, WDSUB1 / Fold change vs veh, HSP90B1 /// MIR3652 / RFU, ADSS / Fold change vs veh, ADSS / RFU, GK / Fold change vs veh, GK / RFU, ZNF148 / Fold change vs veh, ZNF148 / RFU, TAF9 / Fold change vs veh, TAF9 / RFU, SLC1A5 / Fold change vs veh, SLC1A5 / RFU, SLMO2 / Fold change vs veh, SLMO2 / RFU, ABCC4 / Fold change vs veh, ABCC4 / RFU, LOC101060439 /// RAP1B / Fold change vs veh, LOC101060439 /// RAP1B / RFU, RFX7 / Fold change vs veh, RFX7 / RFU, GTPBP10 / Fold change vs veh, GTPBP10 / RFU, CNEP1R1 / Fold change vs veh, CNEP1R1 / RFU, BIVM-ERCC5 /// ERCC5 / Fold change vs veh, BIVM-ERCC5 /// ERCC5 / RFU, ILF3 / Fold change vs veh, ILF3 / RFU 11762660_at / Fold change /veh 11762660_at / RFU VCAN (11757783_s_at) / Fold change /veh VCAN (11757783_s_at) / RFU DDX43 (11728927_at) / Fold change /veh DDX43 (11728927_at) / RFU KRT8 (11758188_x_at) / Fold change /veh KRT8 (11758188_x_at) / RFU NKD1 (11759106_at) / Fold change /veh NKD1 (11759106_at) / RFU SRD5A1 (11742802_a_at) / Fold change /veh SRD5A1 (11742802_a_at) / RFU TPSAB1 /// TPSB2 (11721975_s_at) / Fold change /veh TPSAB1 /// TPSB2 (11721975_s_at) / RFU GSTM3 (11746129_a_at) / Fold change /veh GSTM3 (11746129_a_at) / RFU IL23R (11737362_x_at) / Fold change /veh IL23R (11737362_x_at) / RFU TMEM51 (11727254_a_at) / Fold change /veh TMEM51 (11727254_a_at) / RFU PIWIL2 (11732686_x_at) / Fold change /veh PIWIL2 (11732686_x_at) / RFU ORM1 (11744905_x_at) / Fold change /veh ORM1 (11744905_x_at) / RFU CCDC152 (11743942_at) / Fold change /veh CCDC152 (11743942_at) / RFU ECM1 (11717891_a_at) / Fold change /veh ECM1 (11717891_a_at) / RFU IL23R (11748794_a_at) / Fold change /veh IL23R (11748794_a_at) / RFU TNFAIP8L3 (11732012_x_at) / Fold change /veh TNFAIP8L3 (11732012_x_at) / RFU MBOAT4 (11741988_at) / Fold change /veh MBOAT4 (11741988_at) / RFU 11764193_at / Fold change /veh 11764193_at / RFU TMEM53 (11763286_at) / Fold change /veh TMEM53 (11763286_at) / RFU MAGEB2 (11727129_at) / Fold change /veh MAGEB2 (11727129_at) / RFU TMEM200A (11744735_a_at) / Fold change /veh TMEM200A (11744735_a_at) / RFU CCDC152 (11751479_a_at) / Fold change /veh CCDC152 (11751479_a_at) / RFU FAM211A (11726209_a_at) / Fold change /veh FAM211A (11726209_a_at) / RFU RGS16 (11746705_a_at) / Fold change /veh RGS16 (11746705_a_at) / RFU VCAN (11755009_s_at) / Fold change /veh VCAN (11755009_s_at) / RFU RHOB (11743442_s_at) / Fold change /veh RHOB (11743442_s_at) / RFU RGS16 (11720943_a_at) / Fold change /veh RGS16 (11720943_a_at) / RFU RGS16 (11720944_at) / Fold change /veh RGS16 (11720944_at) / RFU, VPS4B / Fold change vs veh, VPS4B / RFU, CREB1 / Fold change vs veh, CREB1 / RFU, DNAJC13 / Fold change vs veh, DNAJC13 / RFU, GNAQ / Fold change vs veh, GNAQ / RFU, CDK5R1 / Fold change vs veh, CDK5R1 / RFU, ZRANB3 / Fold change vs veh, ZRANB3 / RFU, CUL4A / Fold change vs veh, CUL4A / RFU, CCNY / Fold change vs veh, CCNY / RFU, UFL1 / Fold change vs veh, UFL1 / RFU, COG3 / Fold change vs veh, COG3 / RFU, DIAPH2 / Fold change vs veh, DIAPH2 / RFU, SKA2 / Fold change vs veh, SKA2 / RFU, AFF3 / Fold change vs veh, AFF3 / RFU, LMF1 / Fold change vs veh, LMF1 / RFU, IPO11 / Fold change vs veh, IPO11 / RFU, DFFB / Fold change vs veh, DFFB / RFU, FOXP1 / Fold change vs veh, FOXP1 / RFU, CARD8 / Fold change vs veh, CARD8 / RFU, STRN3 / Fold change vs veh, STRN3 / RFU, ADK / Fold change vs veh, ADK / RFU, RASSF2 / Fold change vs veh, RASSF2 / RFU, WIPF1 / Fold change vs veh, WIPF1 / RFU, LARP1B / Fold change vs veh, LARP1B / RFU, RASA1 / Fold change vs veh, RASA1 / RFU, RB1 / Fold change vs veh, RB1 / RFU, PPFIA1 / Fold change vs veh, PPFIA1 / RFU, MAT2A / Fold change vs veh, MAT2A / RFU, CCT5 / Fold change vs veh, CCT5 / RFU, WDR92 / Fold change vs veh, WDR92 / RFU, CUX1 / Fold change vs veh, CUX1 / RFU, TTC7A / Fold change vs veh, TTC7A / RFU, TMEM135 / Fold change vs veh, TMEM135 / RFU, DEPTOR / Fold change vs veh, DEPTOR / RFU, CPM / Fold change vs veh, CPM / RFU, DNAJB6 / Fold change vs veh, DNAJB6 / RFU, CACNA2D3 / Fold change vs veh, CACNA2D3 / RFU, DTX4 / Fold change vs veh, DTX4 / RFU, TFCP2 / Fold change vs veh, TFCP2 / RFU, GMCL1 /// GMCL1P1 / Fold change vs veh, GMCL1 /// GMCL1P1 / RFU, AEBP2 / Fold change vs veh, AEBP2 / RFU, SNHG1 /// SNORD22 /// SNORD25 /// SNORD26 /// SNORD27 /// SNORD28 /// SNORD29 /// SNORD31 / Fold change vs veh, SNHG1 /// SNORD22 /// SNORD25 /// SNORD26 /// SNORD27 /// SNORD28 /// SNORD29 /// SNORD31 / Fold change (Aza/veh), C12orf56 (ProbeSet 11735607_a_at) / Fold change (ACY-1035/veh), C12orf56 (ProbeSet 11735607_a_at) / Fold change (Aza/veh), FGFR1OP (ProbeSet 11751329_s_at) / Fold change (ACY-1035/veh), FGFR1OP (ProbeSet 11751329_s_at) / Fold change (Aza/veh), VPS36 (ProbeSet 11739960_a_at) / Fold change (ACY-1035/veh), VPS36 (ProbeSet 11739960_a_at) / RFU SYPL1 (11715823_x_at) / Fold change /veh SYPL1 (11715823_x_at) / RFU IGFBP7 (11715501_s_at) / Fold change /veh IGFBP7 (11715501_s_at) / RFU REEP3 (11722064_at) / Fold change /veh REEP3 (11722064_at) / RFU IGLL1 (11728026_x_at) / Fold change /veh IGLL1 (11728026_x_at): dose or concentration left out as unconfirmed. The note with it: ProbeSet 11733831_s_at; LIST D.

Regarding `Nc1ncn([C@@H]2O[C@H](CO)[C@@H](O)[C@H]2O)c(=O)n1` [azacitidine], the “Fold change vs veh, GMCL1 /// GMCL1P1” value worked out at 0.81.
